Assay results reported in ChEMBL document CHEMBL5360649, “Potential Broad-Spectrum Antimicrobial, Wound Healing, and Disinfectant Cationic Peptide Crafted from Snake Venom” (J Med Chem, 2023).
Active and inactive are the calls of the source. The calls are words filed in the database; no cut-off is given here. Bridge positions count the residues as written; N and C are the ends. Square brackets hold non-standard residues; d marks the D form. Peptide text beside a SMILES is read from it. * marks the point of attachment. ξ: configuration not given here. Heptanoyl(6-Me) = CC(C)CCCCC(=O)*; dDab = NCC[C@@H](N)C(=O)O; Orn = NCCC[C@H](N)C(=O)O; Dab = NCC[C@H](N)C(=O)O; ξP = O=C(O)C1CCCN1

Legend:
Klebsiella pneumoniae [1] = experiment: Induction of resistance development in Klebsiella pneumoniae assessed as fold increase in MIC at 0.5 times of MIC incubated with compound for 12 hrs followed by replacement with fresh medium for 12 hrs and measured after 20 repeated cycles; type: functional; conditions: time 240.0 hrs
Pseudomonas aeruginosa [2] = experiment: Induction of resistance development in Pseudomonas aeruginosa assessed as fold increase in MIC at 0.5 times of MIC incubated with compound for 12 hrs followed by replacement with fresh medium for 12 hrs and measured after 20 repeated cycles; type: functional, organism-based; conditions: time 240.0 hrs
Rattus norvegicus = species: Rattus norvegicus; experiment: Induction of wound healing in surgically-induced Albino Wistar rat wound model inoculated with methicillin-resistant Staphylococcus aureus assessed as reduction in scarring measured after 11 days by H&E staining based analysis; type: functional; conditions: time 11.0 day
Cell membrane [3] = experiment: Induction of outer membrane permeabilization in methicillin-resistant Staphylococcus aureus incubated for 5 to 20 mins by fluorescence based NPN uptake assay; type: subcellular; conditions: time 5-20 min
Cell membrane [4] = experiment: Induction of cytoplasmic membrane depolarization in Klebsiella pneumoniae assessed as increase in fluorescence intensity at 5 uM by DiSC3-5 dye based fluorescence method; type: subcellular
Klebsiella pneumoniae [5] = experiment: Antibacterial activity against Klebsiella pneumoniae ATCC BAA-1705 assessed as inhibition of bacterial growth at 25 to 100 uM incubated overnight by spotting assay; type: functional, organism-based; conditions: dose 25-100 µM
Pseudomonas aeruginosa [6] = experiment: Antibacterial activity against patient-derived Pseudomonas aeruginosa assessed as inhibition of bacterial growth incubated for 24 hrs by CLSI protocol based microdilution method; type: functional
Pseudomonas aeruginosa [7] = experiment: Antibacterial activity against patient-derived Pseudomonas aeruginosa assessed as inhibition of bacterial growth at 25 to 100 uM incubated overnight by spotting assay; type: functional, organism-based; conditions: dose 25-100 µM
Staphylococcus aureus [8] = experiment: Antibacterial activity against patient-derived methicillin-resistant Staphylococcus aureus assessed as inhibition of bacterial growth incubated for 24 hrs by CLSI protocol based microdilution method; type: functional
Staphylococcus aureus [9] = experiment: Antibacterial activity against patient-derived methicillin-resistant Staphylococcus aureus assessed as inhibition of bacterial growth at 25 to 100 uM incubated overnight by spotting assay; type: functional, organism-based; conditions: dose 25-100 µM
Klebsiella pneumoniae [10] = experiment: Antibacterial activity against Klebsiella pneumoniae ATCC BAA-1705 assessed as inhibition of bacterial growth incubated for 24 hrs by CLSI protocol based microdilution method; type: functional
Escherichia coli [11] = experiment: Antibacterial activity against Escherichia coli ATCC CRM-11229 assessed as inhibition of bacterial growth at 25 to 100 uM incubated overnight by spotting assay; type: functional, organism-based; conditions: dose 25-100 µM
Escherichia coli [12] = experiment: Antibacterial activity against Escherichia coli ATCC CRM-11229 assessed as inhibition of bacterial growth incubated for 24 hrs by CLSI protocol based microdilution method; type: functional

In the case of COLISTIN, the fold change (FC) (Klebsiella pneumoniae [1]) was 4 and the fold change (FC) (Pseudomonas aeruginosa [2]) was 2.
In the case of `C=CN1CCCC1=O.II`, the Activity (Rattus norvegicus) was “inactive”.
In the case of `CC(C)CCCCC(=O)N[C@@H](CCN)C(=O)N[C@H](C(=O)N[C@@H](CCN)C(=O)N[C@H]1CCNC(=O)[C@H]([C@@H](C)O)NC(=O)[C@H](CCN)NC(=O)[C@H](CCN)NC(=O)[C@H](CC(C)C)NC(=O)[C@@H](Cc2ccccc2)NC(=O)[C@@H](CCN)NC1=O)[C@@H](C)O` ({Heptanoyl(6-Me)}-[Dab]T[Dab][Dab][dDab][dF]L[Dab][Dab]T; lactam 4-C), the Activity (Cell membrane [3]) was “Active”.
`CC(C)C[C@@H]1NC(=O)[C@H](CCCN)NC(=O)[C@H](C(C)C)NC(=O)[C@@H]2CCCN2C(=O)[C@@H](Cc2ccccc2)NC(=O)[C@H](CC(C)C)NC(=O)[C@H](CCCN)NC(=O)[C@H](C(C)C)NC(=O)C2CCCN2C(=O)[C@@H](Cc2ccccc2)NC1=O` (stereo partly drawn) (cyclo(L[dF]PV[Orn]L[dF][ξP]V[Orn])) was tested, and the Activity (Cell membrane [4]) was “Active”.
For H-LPIIKWVKKFFWRWR-OH, the Activity (Klebsiella pneumoniae [5]) was “Active”, the MIC (Pseudomonas aeruginosa [6]) was 10 µM and the Activity (Pseudomonas aeruginosa [7]) was “Active”. The MIC (Staphylococcus aureus [8]) was 15 µM, the Activity (Staphylococcus aureus [9]) was “Active” and the MIC (Klebsiella pneumoniae [10]) was 16 µM. For the same compound, the Activity (Escherichia coli [11]) was “Active” and the MIC (Escherichia coli [12]) was 8 µM.
